US5510385A, “Pharmaceutical compositions containing the salts of S(+)-2-(4-isobutylphenyl)propionic acid with basic aminoacids” (priority 1993, dated 1996)
Structures can show the parent of a compound that is named as a salt.

How the values were obtained:
[1] = S(+)-Ibuprofen plasma concentrations and bioavailability parameters after single oral dose, cross-over (Examples 6-10, HPLC)
Procedure: Each subject was apparently healthy, especially as lap as the Renal, hepatic and hematopoietic functions were concerned.
For the trial, a cross-over design was adopted: each subject received both preparations in two treatment sessions carried out in two different weeks randomizing the order of the administration.
Further, samples of venous blood were withdrawn at 5, 10, 15, 30, 45, 60, 90, 120, 240 and 480 minutes after the treatment. Plasma was then prepared by centrifugation and preserved at -20° C. until the analysis.
The analytical determination of the active ingredient in the plasma samples was carried out by HPLC method as described hereinafter. Chromatographic conditions:
Apparatus: JASCO BIP-1 with U.V. detector UVI DEC-100 v
Column: Chiral AGP, 100×4.0 mm, 5 μm (Chron Tech) with a precolumn Chiral AGP 10×3.0 mm (Chron Tech) […]
The following parameters were calculated:
the area under curve of S(+)-Ibuprofen plasma concentration from time "zero" to "infinite" (AUCtot) was calculated by the following formula: AUCtot =AUCo→480 +AUC480→- wherein AUC480- =concentration at 480 minutes/Ke. and Ke =elimination constant
mean peak time (tmax), expressed as minutes, was obtained from the average of each peak time
the mean peak of maximum plasma concentration (Cmax), expressed as μg/ml, was calculated by the average of each concentration peak value.

[2] = in words, versus Ibuprofen (and, EP 424028, Ibuprofen salts and S(+)-Ibuprofen); cited from earlier work

Row | Compound | increase of S(+)-Ibuprofen maximum plasma concentration over equivalent Ibuprofen salt composition ([1]; 400 mg or 300 mg of S(+)-Ibuprofen versus 800 mg or 600 mg of Ibuprofen, oral) | S(+)-Ibuprofen maximum plasma concentration (Cmax) compared with equivalent racemic Ibuprofen treatment ([1]; in words, versus reference treatment) | analgesic effect (onset and duration) [2]
1 | CC(C)Cc1ccc([C@H](C)C(=O)O)cc1 [S(+)-Ibuprofen arginate, salt of S(+)-Ibuprofen with L-arginine] | 15-20% | substantially equal | 
2 | CC(C)Cc1ccc([C@H](C)C(=O)O)cc1 [S(+)-Ibuprofen, (S)-enantiomer of 2-(4-isobutylphenyl)propionic acid] |  |  | faster, and consequently a longer, analgesic effect than Ibuprofen
